According to patent publication US9815796B2 (Merck Sharp & Dohme Corp., priority 2013, dated 2017):
Where two headings read alike, the source gives them in different places.

How the values were obtained:
[1] = molecular target: human PDE2A1 (Homo sapiens (Human), UniProt O00408); assay: IMAP FP PDE selectivity panel, human PDE2A1; type: biochemical
Summary of the method: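 IMAP FP format: substrate 50 nM FAM-cAMP plus 1000 nM cGMP, enzyme (insect-cell GST-tagged human PDE2A1) at ~20% conversion, 60 min reaction at room temperature. Apparent inhibition constants calculated from parallel/perpendicular fluorescence with KM 10,000 nM.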

[2] = molecular target: Rhesus PDE2A3 (Macaca mulatta, UniProt B3VTJ2); assay: PDE2 fluorescence polarization (IMAP FP) inhibition assay, rhesus enzyme; type: biochemical, rhesus macaque
Summary of the method: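 IMAP FP (mP from parallel and perpendicular fluorescence against substrate-only control) was read ≥1 h after adding binding reagent. The preceding 60 min room-temperature reaction contained FAM-cAMP (50 nM) and cGMP (1 uM) in pH 7.2 Tris buffer with MgCl2 and DTT. Enzyme was supernatant of sonicated AD293 cells expressing rhesus PDE2A3; compounds were 3-fold titrated, DMSO 1% final.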

[3] = Human PDE2, Lab A, read-out: Human PDE2 Ki (nM) - Lab A
[4] = Rhesus PDE2, Lab A, read-out: Rhesus PDE2 Ki (nM) - Lab A
[5] = Human PDE2, Lab B, read-out: Human PDE2 Ki (nM) - Lab B
[6] = Rhesus PDE2, Lab B, read-out: Rhesus PDE2 Ki (nM) - Lab B

Sequence of Rhesus PDE2A3 (B3VTJ2 1-941): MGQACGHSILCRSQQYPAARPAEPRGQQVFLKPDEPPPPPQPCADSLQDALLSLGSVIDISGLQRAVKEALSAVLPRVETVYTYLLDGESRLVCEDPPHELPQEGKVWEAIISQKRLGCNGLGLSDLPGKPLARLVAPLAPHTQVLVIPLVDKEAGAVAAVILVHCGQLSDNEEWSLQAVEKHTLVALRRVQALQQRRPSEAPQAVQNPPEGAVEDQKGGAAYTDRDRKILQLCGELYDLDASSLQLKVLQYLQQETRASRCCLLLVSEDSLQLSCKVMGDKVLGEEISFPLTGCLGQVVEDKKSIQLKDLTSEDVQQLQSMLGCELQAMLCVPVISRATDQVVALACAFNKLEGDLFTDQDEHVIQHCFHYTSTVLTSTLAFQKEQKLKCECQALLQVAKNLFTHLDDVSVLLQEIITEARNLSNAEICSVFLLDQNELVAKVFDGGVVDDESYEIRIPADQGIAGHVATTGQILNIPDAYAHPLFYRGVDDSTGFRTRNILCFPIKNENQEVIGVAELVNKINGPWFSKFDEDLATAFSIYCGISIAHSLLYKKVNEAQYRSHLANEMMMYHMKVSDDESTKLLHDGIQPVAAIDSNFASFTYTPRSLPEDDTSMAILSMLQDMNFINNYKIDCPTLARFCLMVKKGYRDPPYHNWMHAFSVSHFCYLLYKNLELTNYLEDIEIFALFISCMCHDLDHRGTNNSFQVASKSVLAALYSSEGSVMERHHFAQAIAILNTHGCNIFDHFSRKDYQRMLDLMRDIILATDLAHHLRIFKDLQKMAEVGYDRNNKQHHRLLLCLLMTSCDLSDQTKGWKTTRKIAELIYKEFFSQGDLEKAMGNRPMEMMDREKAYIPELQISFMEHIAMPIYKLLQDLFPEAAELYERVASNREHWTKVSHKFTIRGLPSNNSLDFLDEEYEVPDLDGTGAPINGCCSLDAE
Sequence of human PDE2A1 (O00408 other isoform, or with tags, fused parts or gaps): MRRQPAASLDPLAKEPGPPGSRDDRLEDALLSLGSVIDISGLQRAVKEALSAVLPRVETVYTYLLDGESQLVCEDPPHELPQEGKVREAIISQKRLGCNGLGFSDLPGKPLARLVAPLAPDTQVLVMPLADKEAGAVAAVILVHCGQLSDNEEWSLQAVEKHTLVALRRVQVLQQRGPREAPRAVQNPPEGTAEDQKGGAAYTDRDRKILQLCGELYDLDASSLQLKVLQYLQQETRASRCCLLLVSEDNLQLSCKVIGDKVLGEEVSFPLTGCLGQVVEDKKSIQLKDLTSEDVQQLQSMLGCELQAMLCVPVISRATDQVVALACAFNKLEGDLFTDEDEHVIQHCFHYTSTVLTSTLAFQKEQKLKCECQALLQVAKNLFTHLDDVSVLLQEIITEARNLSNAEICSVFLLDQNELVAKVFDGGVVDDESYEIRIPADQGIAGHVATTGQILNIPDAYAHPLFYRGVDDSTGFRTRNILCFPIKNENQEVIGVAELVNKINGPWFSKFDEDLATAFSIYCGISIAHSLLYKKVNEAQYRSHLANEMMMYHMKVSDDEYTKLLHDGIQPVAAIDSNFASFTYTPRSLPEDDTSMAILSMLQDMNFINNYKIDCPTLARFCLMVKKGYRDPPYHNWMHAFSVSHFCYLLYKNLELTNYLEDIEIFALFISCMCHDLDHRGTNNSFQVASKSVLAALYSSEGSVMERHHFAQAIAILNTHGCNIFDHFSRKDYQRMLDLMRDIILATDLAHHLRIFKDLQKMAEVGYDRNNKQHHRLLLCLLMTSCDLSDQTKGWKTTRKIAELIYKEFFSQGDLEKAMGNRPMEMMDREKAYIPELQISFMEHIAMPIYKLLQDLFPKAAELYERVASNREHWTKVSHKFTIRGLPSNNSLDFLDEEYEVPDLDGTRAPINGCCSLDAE

Ki [1, 3] [nM] | Ki [2, 4] [nM] | Ki [1, 5] [nM] | Ki [2, 6] [nM] | Structure (SMILES)
15 | 29 |  |  | C[C@@H](NC(=O)c1cc(=O)[nH]c(-c2ccccc2)n1)c1ccc(C(F)(F)F)cc1F [Example 150, N-{(1R)-1-[2-fluoro-4-(trifluoromethyl)phenyl]ethyl}-6-oxo-2-phenyl-1,6-dihydropyrimidine-4-carboxamide]
24 | 25 |  |  | Cc1nc(C(=O)N[C@H](C)c2ccc(C(F)(F)F)c(F)c2)cc(=O)[nH]1 [Example 20, N-{(1R)-1-[3-fluoro-4-(trifluoromethyl)phenyl]ethyl}-2-methyl-6-oxo-1,6-dihydropyrimidine-4-carboxamide]
3.1 | 6.3 |  |  | C[C@@H](NC(=O)c1cc(=O)[nH]c(C2CC2)n1)c1ccc(OC(F)(F)F)c(F)c1 [Example 296, 2-cyclopropyl-N-{(1R)-1-[3-fluoro-4-(trifluoromethoxy)phenyl]ethyl}-6-oxo-1,6-dihydropyrimidine-4-carboxamide]
62 | 60 |  |  | CC(C)(NC(=O)c1cc(=O)[nH]c(-c2ccccc2)n1)c1ccc(SC(F)(F)F)cc1 [Example 186, N-(1-methyl-1-{4-[(trifluoromethyl)sulfanyl]phenyl}ethyl)-6-oxo-2-phenyl-1,6-dihydropyrimidine-4-carboxamide]
81 | 151 |  |  | COc1ccc2cc(C(C)NC(=O)c3cc(=O)[nH]c(C4CC4)n3)ccc2c1 (centres unmarked) [Example 192, 2-cyclopropyl-N-[1-(6-methoxynaphthalen-2-yl)ethyl]-6-oxo-1,6-dihydropyrimidine-4-carboxamide]
 |  | 46 | 60 | COc1ccc(C(C)(C)c2nc(C(=O)N[C@@H](c3ccc(C(F)(F)F)c(F)c3)C(C)C)cc(=O)[nH]2)cc1 [Example 486, N-{(1R)-1-[3-fluoro-4-(trifluoromethyl)phenyl]-2-methylpropyl}-2-[1-(4-methoxyphenyl)-1-methylethyl]-6-oxo-1,6-dihydropyrimidine-4-carboxamide]
 | ~149 | ~661 |  | O=C(NCc1ccc(-c2ccccc2)cc1)c1cc(=O)[nH]c(-c2ccccc2)n1 [Example 372, N-(biphenyl-4-ylmethyl)-6-oxo-2-phenyl-1,6-dihydropyrimidine-4-carboxamide]
 |  | 1.5 | 1.9 | CC[C@@H](NC(=O)c1cc(=O)[nH]c(Cc2ccc(OC)cc2)n1)c1ccc(OC(F)(F)F)cc1 [Example 485, 2-(4-methoxybenzyl)-6-oxo-N-{(1R)-1-[4-(trifluoromethoxy)phenyl]propyl}-1,6-dihydropyrimidine-4-carboxamide]
33 | 50 | 48 | 48 | Cc1nc(C(=O)N[C@H](C)c2ccc(C(F)(F)F)cc2)cc(=O)[nH]1 [Example 13, 2-methyl-6-oxo-N-{(1R)-1-[4-(trifluoromethyl)phenyl]ethyl}-1,6-dihydropyrimidine-4-carboxamide]
 |  | 6.5 | 9.5 | O=C(N[C@@H](c1ccc(S(F)(F)(F)(F)F)cc1)C1CC1)c1cc(=O)[nH]c(-c2ccccc2)n1 [Example 404, N-{(R)-cyclopropyl[4-(pentafluoro-λ^6-sulfanyl)phenyl]methyl}-6-oxo-2-phenyl-1,6-dihydropyrimidine-4-carboxamide]
16 | 70 |  |  | COCc1nc(C(=O)N[C@@H](c2ccc(OC(F)(F)F)cc2)C2CC2)cc(=O)[nH]1 [Example 116, N-{(R)-cyclopropyl[4-(trifluoromethoxy)phenyl]methyl}-2-(methoxymethyl)-6-oxo-1,6-dihydropyrimidine-4-carboxamide]
 |  | 1.7 | 1.5 | CC[C@@H](NC(=O)c1cc(=O)[nH]c(Cc2ccc(OC)cc2)n1)c1ccc(SC(F)(F)F)c(F)c1 [Example 477, N-[(1R)-1-{3-fluoro-4-[(trifluoromethyl)sulfanyl]phenyl}propyl]-2-(4-methoxybenzyl)-6-oxo-1,6-dihydropyrimidine-4-carboxamide]
2.1 | 3.3 |  |  | CC(C)[C@@H](NC(=O)c1cc(=O)[nH]c(-c2ccccc2)n1)c1ccc(OC(F)(F)F)cc1 [Example 166, N-{(1R)-2-methyl-1-[4-(trifluoromethoxy)phenyl]propyl}-6-oxo-2-phenyl-1,6-dihydropyrimidine-4-carboxamide]
 |  | 4.8 | 6.7 | CC(C)(C)[C@@H](NC(=O)c1cc(=O)[nH]c(-c2ncccn2)n1)c1ccc(C2CC2)c(F)c1 [Example 451, N-[(1R)-1-(4-cyclopropyl-3-fluorophenyl)-2,2-dimethylpropyl]-6-oxo-1,6-dihydro-2,2′-bipyrimidine-4-carboxamide]
 | 28 | 58 |  | O=C(NCc1ccc(S(F)(F)(F)(F)F)cc1)c1cc(=O)[nH]c(-c2ccccc2)n1 [Example 377, 6-oxo-N-[4-(pentafluoro-λ^6-sulfanyl)benzyl]-2-phenyl-1,6-dihydropyrimidine-4-carboxamide]
9.7 | 10 |  |  | Cc1cc([C@@H](C)NC(=O)c2cc(=O)[nH]c(-c3ccccc3)n2)ccc1C(F)(F)F [Example 189]
32 | 41 |  |  | Cc1nc(C(=O)N[C@H](C)c2ccc(C(F)(F)F)c(Cl)c2)cc(=O)[nH]1 [Example 47, N-{(1R)-1-[3-chloro-4-(trifluoromethyl)phenyl]ethyl}-2-methyl-6-oxo-1,6-dihydropyrimidine-4-carboxamide]
29 | 62 |  |  | O=C(NC1(c2ccc(C(F)(F)F)cc2)CCCC1)c1cc(=O)[nH]c(C2CC2)n1 [Example 197, 2-cyclopropyl-6-oxo-N-{1-[4-(trifluoromethyl)phenyl]cyclopentyl}-1,6-dihydropyrimidine-4-carboxamide]
 |  | 12 | 13 | O=C(N[C@@H](c1ccc(OC(F)F)cc1)C1CC1)c1cc(=O)[nH]c(-c2ccccc2)n1 [Example 448, N-{(R)-cyclopropyl[4-(difluoromethoxy)phenyl]methyl}-6-oxo-2-phenyl-1,6-dihydropyrimidine-4-carboxamide]
3.2 | 3.3 |  |  | CC[C@@H](NC(=O)c1cc(=O)[nH]c(-c2ccccc2)n1)c1ccc(SC(F)(F)F)cc1 [Example 151, 6-oxo-2-phenyl-N-[(1R)-1-{4-[(trifluoromethyl)sulfanyl]phenyl}propyl]-1,6-dihydropyrimidine-4-carboxamide]
3.5 | 4.4 |  |  | C[C@@H](NC(=O)c1cc(=O)[nH]c(C2CC2)n1)c1ccc(SC(F)(F)F)cc1 [Example 15, (R)-2-cyclopropyl-6-oxo-N-(1-(4-((trifluoromethyl)thio)phenyl)ethyl)-1,6-dihydro pyrimidine-4-carboxamide]
 |  | 5.2 | 5.1 | Cc1nc(C(=O)N[C@@H](c2ccc(C3CC3)c(F)c2)C(C)C)cc(=O)[nH]1 [Example 621, N-[(1R)-1-(4-cyclopropyl-3-fluorophenyl)-2-methylpropyl]-2-methyl-6-oxo-1,6-dihydropyrimidine-4-carboxamide]
 | 5.3 | 6.3 | 5.4 | C[C@@H](NC(=O)c1cc(=O)[nH]c(-c2ncccn2)n1)c1ccc(C2CC2)cc1 [Example 250, N-[(1R)-1-(4-cyclopropylphenyl)ethyl]-6-oxo-1,6-dihydro-2,2′-bipyrimidine-4-carboxamide]
9.4 | 9 |  |  | CC(NC(=O)c1cc(=O)[nH]c(-c2ccccc2)n1)c1ccc(C2CC2)cc1 (centres unmarked) [Example 164, N-[1-(4-cyclopropylphenyl)ethyl]-6-oxo-2-phenyl-1,6-dihydropyrimidine-4-carboxamide]
20 | 21 |  |  | C[C@@H](NC(=O)c1cc(=O)[nH]c(Cc2ccccc2)n1)c1ccc(C(F)(F)F)cc1 [Example 133, 2-benzyl-6-oxo-N-{(1R)-1-[4-(trifluoromethyl)phenyl]ethyl}-1,6-dihydropyrimidine-4-carboxamide]
65 | 86 |  |  | CC(C)(NC(=O)c1cc(=O)[nH]c(C2CC2)n1)c1ccc(SC(F)(F)F)c(F)c1 [Example 266, 2-cyclopropyl-N-(1-{3-fluoro-4-[(trifluoromethyl)sulfanyl]phenyl}-1-methylethyl)-6-oxo-1,6-dihydropyrimidine-4-carboxamide]
7.8 | 11 |  |  | Cc1nc(C(=O)N[C@@H](c2ccc(SC(F)(F)F)c(F)c2)C2CC2)cc(=O)[nH]1 [Example 55, N-[(R)-cyclopropyl{3-fluoro-4-[(trifluoromethyl)sulfanyl]phenyl}methyl]-2-methyl-6-oxo-1,6-dihydropyrimidine-4-carboxamide]
 | 69 | 114 |  | CC1Cc2cc(C(C)NC(=O)c3cc(=O)[nH]c(-c4ccccc4)n3)ccc2O1 (centres unmarked) [Example 379, N-[1-(2-methyl-2,3-dihydro-1-benzofuran-5-yl)ethyl]-6-oxo-2-phenyl-1,6-dihydropyrimidine-4-carboxamide]
~9.8 | 34 | 33 | 28 | O=C(N[C@@H](c1ccc(C(F)(F)F)c(F)c1)C1CC1)c1cc(=O)[nH]c(-c2ncccn2)n1 [Example 91, N-{(R)-cyclopropyl[3-fluoro-4-(trifluoromethyl)phenyl]methyl}-6-oxo-1,6-dihydro-2,2′-bipyrimidine-4-carboxamide]
5.6 | 7.8 |  |  | Cc1nc(C(=O)N[C@@H](c2ccc(OC(F)(F)F)c(F)c2)C(C)C)cc(=O)[nH]1 [Example 38, N-{(1R)-1-[3-fluoro-4-(trifluoromethoxy)phenyl]-2-methylpropyl}-2-methyl-6-oxo-1,6-dihydropyrimidine-4-carboxamide]
